Laboratory results taken from ChEMBL document CHEMBL1144574, “Synthesis and identification of novel oxa-steroids as progesterone receptor antagonists” (Bioorg Med Chem Lett, 2007).
pIC50: −log10 of the molar value.

Legend:
Glucocorticoid receptor = biological target: T1, Glucocorticoid receptor (Homo sapiens, UniProt P04150); assay: Antagonist activity at glucocorticoid receptor in human A549 cells assessed as inhibition of corticoid-induced GRE-linked luciferase reporter gene activity; assay type: functional, cell-based
T1 sequence (P04150 whole entry): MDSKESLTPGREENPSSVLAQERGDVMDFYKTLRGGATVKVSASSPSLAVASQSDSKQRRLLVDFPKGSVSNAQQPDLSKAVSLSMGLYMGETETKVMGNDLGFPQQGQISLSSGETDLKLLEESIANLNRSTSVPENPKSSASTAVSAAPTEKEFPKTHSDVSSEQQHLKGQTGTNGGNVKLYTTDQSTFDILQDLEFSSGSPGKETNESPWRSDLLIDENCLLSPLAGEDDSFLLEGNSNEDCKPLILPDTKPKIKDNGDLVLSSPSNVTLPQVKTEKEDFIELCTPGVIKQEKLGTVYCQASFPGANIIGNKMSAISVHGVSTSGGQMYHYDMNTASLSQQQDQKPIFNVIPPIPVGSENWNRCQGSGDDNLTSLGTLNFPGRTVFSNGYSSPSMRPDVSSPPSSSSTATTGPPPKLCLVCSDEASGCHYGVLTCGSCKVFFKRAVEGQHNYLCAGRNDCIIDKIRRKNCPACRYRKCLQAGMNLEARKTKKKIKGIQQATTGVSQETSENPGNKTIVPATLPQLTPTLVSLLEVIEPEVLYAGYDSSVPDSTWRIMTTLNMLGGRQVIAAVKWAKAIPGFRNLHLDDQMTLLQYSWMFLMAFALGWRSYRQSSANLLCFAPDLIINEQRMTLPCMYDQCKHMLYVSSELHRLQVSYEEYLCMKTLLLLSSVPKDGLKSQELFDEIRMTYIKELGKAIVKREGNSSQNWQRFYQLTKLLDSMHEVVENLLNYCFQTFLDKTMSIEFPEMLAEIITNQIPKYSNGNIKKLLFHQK

Progesterone receptor = biological target: T2, Progesterone receptor (Homo sapiens, UniProt P06401); assay: Antagonist activity at progesterone receptor in human T47D cells assessed as inhibition of progesterone-induced alkaline phosphatase activity; assay type: functional, cell-based
T2 sequence (P06401 whole entry): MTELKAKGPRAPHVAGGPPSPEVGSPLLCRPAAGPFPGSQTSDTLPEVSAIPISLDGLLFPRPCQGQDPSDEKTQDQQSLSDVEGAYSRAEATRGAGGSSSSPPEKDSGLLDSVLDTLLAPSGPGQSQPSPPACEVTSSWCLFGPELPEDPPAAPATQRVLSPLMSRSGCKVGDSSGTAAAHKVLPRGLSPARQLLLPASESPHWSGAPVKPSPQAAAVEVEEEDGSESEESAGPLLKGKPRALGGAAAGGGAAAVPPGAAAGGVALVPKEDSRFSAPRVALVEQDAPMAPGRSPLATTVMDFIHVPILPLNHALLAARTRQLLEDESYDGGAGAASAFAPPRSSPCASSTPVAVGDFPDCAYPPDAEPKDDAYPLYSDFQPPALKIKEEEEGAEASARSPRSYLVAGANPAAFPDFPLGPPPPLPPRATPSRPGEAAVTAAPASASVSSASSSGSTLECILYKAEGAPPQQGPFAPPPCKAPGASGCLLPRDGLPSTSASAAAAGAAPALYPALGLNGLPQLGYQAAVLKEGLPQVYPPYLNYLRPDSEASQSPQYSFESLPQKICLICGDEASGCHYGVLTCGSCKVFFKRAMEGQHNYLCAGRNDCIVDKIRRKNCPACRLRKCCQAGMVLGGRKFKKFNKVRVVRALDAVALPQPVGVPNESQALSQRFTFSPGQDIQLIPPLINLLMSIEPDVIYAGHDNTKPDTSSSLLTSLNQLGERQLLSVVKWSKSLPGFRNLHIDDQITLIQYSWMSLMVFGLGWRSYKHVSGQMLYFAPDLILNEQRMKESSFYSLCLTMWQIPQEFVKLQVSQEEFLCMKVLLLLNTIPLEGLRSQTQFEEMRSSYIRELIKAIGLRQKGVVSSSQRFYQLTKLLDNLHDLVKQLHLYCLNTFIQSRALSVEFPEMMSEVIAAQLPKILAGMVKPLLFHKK

Homo sapiens = species: Homo sapiens; assay: Selectivity for human progesterone receptor over human glucocorticoid receptor

How did the pIC50 (Glucocorticoid receptor) turn out when `CN(C)CC#C[C@]1(O)CC[C@H]2[C@@H]3OCC4=CC(=O)CCC4=C3[C@@H](c3ccc(N(C)C)cc3)C[C@@]21C` was run?
The pIC50 was < 5.52.

And the pIC50 (Progesterone receptor)?
The pIC50 was < 6.00.

Which results are given for `CN(C)c1ccc([C@H]2C[C@@]3(C)[C@@H](CC[C@@]3(O)C#CC(F)(F)F)[C@@H]3OCC4=CC(=O)CCC4=C32)cc1`?
pIC50 (Glucocorticoid receptor): 7.26; pIC50 (Progesterone receptor): 8.03; Ratio IC50 (Homo sapiens): 6

`CN(C)c1ccc([C@H]2C[C@@]3(C)[C@@H](CC[C@@]3(O)C#CC(C)(C)O)[C@@H]3OCC4=CC(=O)CCC4=C32)cc1` was tested. Which pIC50 (Glucocorticoid receptor) did it give?
Its pIC50 is 6.25.

And the pIC50 (Progesterone receptor)?
Its pIC50 is < 6.00.

`CN(C)c1ccc([C@H]2C[C@@]3(C)[C@@H](CC[C@@]3(O)C#Cc3ccccc3)[C@@H]3OCC4=CC(=O)CCC4=C32)cc1` was tested. Which pIC50 (Glucocorticoid receptor) did it give?
The pIC50 was 6.52.

What about the pIC50 (Progesterone receptor) of the same compound?
The pIC50 was 8.85.

And the Ratio IC50 (Homo sapiens)?
Its Ratio IC50 is 217.

Which results are given for `CN(C)c1ccc([C@H]2C[C@@]3(C)[C@@H](CC[C@@]3(O)C#CC3CC3)[C@@H]3OCC4=CC(=O)CCC4=C32)cc1`?
pIC50 (Glucocorticoid receptor): 7.48; pIC50 (Progesterone receptor): 8.02; Ratio IC50 (Homo sapiens): 4

What does the source list for `C#C[C@]1(O)CC[C@H]2[C@@H]3OCC4=CC(=O)CCC4=C3[C@@H](c3ccc(N(C)C)cc3)C[C@@]21C`?
pIC50 (Glucocorticoid receptor): 6.69; pIC50 (Progesterone receptor): 7.72; Ratio IC50 (Homo sapiens): 11

How did the pIC50 (Glucocorticoid receptor) turn out when `CC#C[C@]1(O)CC[C@H]2[C@@H]3OCC4=CC(=O)CCC4=C3[C@@H](c3ccc(N(C)C)cc3)C[C@@]21C` was run?
Its pIC50 is 7.06.

And the pIC50 (Progesterone receptor)?
The pIC50 was 8.12.

What about the Ratio IC50 (Homo sapiens) of the same compound?
The Ratio IC50 was 12.

Which results are given for `CN(C)c1ccc([C@H]2C[C@@]3(C)[C@@H](CC[C@@]3(O)C#CC(C)(C)C)[C@@H]3OCC4=CC(=O)CCC4=C32)cc1`?
pIC50 (Glucocorticoid receptor): 6.78; pIC50 (Progesterone receptor): 6.73; Ratio IC50 (Homo sapiens): 1
